# What was measured:
# [1] = Partition coefficient, logD of compound in octanol and phosphate buffer at pH 7.4 incubated for 6 hrs under shaking condition by HPLC-UV analysis; assay type: physicochemical
# [2] = target: Mitogen-activated protein kinase 8 (Homo sapiens) (UniProt P45983); assay: Inhibition of human JNK1 at 1 uM incubated for 30 mins in presence of [gamma-33P]ATP by kinase selectivity assay
# [3] = target: Cyclin-dependent kinase 2 (Homo sapiens) (UniProt P24941); assay: Inhibition of human CDK2 at 1 uM incubated for 30 mins in presence of [gamma-33P]ATP by kinase selectivity assay
# [4] = target: T1, Tyrosine-protein kinase JAK3 (Homo sapiens) (UniProt P52333); assay: Inhibition of human JAK3 at 1 uM incubated for 30 mins in presence of [gamma-33P]ATP by kinase selectivity assay
# T1 sequence (whole entry): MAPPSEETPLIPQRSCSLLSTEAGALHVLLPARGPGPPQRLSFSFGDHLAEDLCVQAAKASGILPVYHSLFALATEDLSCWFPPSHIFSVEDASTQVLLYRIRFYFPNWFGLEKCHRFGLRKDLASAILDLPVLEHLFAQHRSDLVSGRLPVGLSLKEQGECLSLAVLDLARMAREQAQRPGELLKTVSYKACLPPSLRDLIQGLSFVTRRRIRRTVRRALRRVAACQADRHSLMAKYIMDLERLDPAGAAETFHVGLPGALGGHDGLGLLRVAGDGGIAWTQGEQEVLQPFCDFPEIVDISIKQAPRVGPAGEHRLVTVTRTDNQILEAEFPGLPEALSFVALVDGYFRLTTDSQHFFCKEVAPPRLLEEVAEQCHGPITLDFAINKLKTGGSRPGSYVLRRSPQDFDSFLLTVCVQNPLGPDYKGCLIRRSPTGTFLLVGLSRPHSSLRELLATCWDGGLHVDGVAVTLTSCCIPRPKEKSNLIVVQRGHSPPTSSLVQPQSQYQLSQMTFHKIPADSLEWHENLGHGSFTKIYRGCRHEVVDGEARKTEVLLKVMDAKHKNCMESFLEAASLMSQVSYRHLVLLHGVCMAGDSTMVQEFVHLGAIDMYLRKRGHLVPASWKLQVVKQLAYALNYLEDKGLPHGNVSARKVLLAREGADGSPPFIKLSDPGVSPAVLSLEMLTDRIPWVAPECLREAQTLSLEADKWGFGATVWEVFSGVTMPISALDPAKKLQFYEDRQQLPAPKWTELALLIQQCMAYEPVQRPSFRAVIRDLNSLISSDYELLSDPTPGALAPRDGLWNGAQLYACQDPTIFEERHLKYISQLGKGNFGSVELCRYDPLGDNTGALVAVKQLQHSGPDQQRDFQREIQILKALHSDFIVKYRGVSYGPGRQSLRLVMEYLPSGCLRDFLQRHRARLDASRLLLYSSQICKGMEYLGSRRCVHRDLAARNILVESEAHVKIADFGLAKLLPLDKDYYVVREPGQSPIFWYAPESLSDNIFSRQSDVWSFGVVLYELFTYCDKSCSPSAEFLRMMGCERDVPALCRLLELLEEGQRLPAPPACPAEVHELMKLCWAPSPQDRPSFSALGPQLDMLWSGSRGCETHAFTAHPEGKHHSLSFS
# [5] = Effective permeability in PBS at pH 7.4 incubated for 5 hrs by PAMPA based UPLC-MS/MS analysis; assay type: ADME
# [6] = target: T2, Aurora kinase A (Homo sapiens) (UniProt O14965); assay: Inhibition of human AURA at 1 uM incubated for 30 mins in presence of [gamma-33P]ATP by kinase selectivity assay
# T2 sequence (whole entry): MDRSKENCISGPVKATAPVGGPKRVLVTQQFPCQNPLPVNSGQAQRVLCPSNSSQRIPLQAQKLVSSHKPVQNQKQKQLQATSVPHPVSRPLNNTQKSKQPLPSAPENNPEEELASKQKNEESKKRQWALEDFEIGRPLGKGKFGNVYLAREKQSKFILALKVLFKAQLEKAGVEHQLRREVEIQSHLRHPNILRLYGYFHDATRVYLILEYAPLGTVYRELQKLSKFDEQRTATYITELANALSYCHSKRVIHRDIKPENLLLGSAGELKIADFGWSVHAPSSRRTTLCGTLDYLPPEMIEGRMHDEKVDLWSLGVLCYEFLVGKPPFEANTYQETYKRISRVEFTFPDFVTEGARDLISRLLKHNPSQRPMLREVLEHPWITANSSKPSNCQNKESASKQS
# [7] = target: T3, Mitogen-activated protein kinase kinase kinase 7 (Homo sapiens) (UniProt O43318); assay: Inhibition of human TAK1 at 1 uM incubated for 30 mins in presence of [gamma-33P]ATP by kinase selectivity assay
# T3 sequence (whole entry): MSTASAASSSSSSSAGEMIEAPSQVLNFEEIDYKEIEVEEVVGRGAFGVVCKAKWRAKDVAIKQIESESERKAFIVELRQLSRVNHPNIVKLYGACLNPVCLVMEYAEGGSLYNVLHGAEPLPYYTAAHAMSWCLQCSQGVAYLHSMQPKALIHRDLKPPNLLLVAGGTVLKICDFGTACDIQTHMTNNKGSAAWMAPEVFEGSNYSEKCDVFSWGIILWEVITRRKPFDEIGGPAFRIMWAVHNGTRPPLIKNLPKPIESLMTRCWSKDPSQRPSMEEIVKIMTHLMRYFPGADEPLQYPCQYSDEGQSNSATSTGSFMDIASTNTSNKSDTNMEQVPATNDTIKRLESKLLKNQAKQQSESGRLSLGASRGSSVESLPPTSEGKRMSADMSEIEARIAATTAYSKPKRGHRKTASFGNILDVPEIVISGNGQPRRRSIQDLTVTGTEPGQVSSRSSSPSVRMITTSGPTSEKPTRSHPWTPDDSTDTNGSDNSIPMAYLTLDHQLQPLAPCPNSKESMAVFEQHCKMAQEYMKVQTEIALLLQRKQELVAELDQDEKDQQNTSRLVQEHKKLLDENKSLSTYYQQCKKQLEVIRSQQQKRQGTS
# [8] = Metabolic stability in human liver microsome assessed as intrinsic clearance at 0.5 uM incubated upto 30 mins by UPLC-MS/MS analysis; assay type: ADME; details: microsomes, 0.5 h
# [9] = target: Vascular endothelial growth factor receptor 1 (Homo sapiens) (UniProt P17948); assay: Inhibition of human VEGFR1 at 1 uM incubated for 30 mins in presence of [gamma-33P]ATP by kinase selectivity assay
# Vascular endothelial growth factor receptor 1 (Homo sapiens), sequence (P17948 whole entry): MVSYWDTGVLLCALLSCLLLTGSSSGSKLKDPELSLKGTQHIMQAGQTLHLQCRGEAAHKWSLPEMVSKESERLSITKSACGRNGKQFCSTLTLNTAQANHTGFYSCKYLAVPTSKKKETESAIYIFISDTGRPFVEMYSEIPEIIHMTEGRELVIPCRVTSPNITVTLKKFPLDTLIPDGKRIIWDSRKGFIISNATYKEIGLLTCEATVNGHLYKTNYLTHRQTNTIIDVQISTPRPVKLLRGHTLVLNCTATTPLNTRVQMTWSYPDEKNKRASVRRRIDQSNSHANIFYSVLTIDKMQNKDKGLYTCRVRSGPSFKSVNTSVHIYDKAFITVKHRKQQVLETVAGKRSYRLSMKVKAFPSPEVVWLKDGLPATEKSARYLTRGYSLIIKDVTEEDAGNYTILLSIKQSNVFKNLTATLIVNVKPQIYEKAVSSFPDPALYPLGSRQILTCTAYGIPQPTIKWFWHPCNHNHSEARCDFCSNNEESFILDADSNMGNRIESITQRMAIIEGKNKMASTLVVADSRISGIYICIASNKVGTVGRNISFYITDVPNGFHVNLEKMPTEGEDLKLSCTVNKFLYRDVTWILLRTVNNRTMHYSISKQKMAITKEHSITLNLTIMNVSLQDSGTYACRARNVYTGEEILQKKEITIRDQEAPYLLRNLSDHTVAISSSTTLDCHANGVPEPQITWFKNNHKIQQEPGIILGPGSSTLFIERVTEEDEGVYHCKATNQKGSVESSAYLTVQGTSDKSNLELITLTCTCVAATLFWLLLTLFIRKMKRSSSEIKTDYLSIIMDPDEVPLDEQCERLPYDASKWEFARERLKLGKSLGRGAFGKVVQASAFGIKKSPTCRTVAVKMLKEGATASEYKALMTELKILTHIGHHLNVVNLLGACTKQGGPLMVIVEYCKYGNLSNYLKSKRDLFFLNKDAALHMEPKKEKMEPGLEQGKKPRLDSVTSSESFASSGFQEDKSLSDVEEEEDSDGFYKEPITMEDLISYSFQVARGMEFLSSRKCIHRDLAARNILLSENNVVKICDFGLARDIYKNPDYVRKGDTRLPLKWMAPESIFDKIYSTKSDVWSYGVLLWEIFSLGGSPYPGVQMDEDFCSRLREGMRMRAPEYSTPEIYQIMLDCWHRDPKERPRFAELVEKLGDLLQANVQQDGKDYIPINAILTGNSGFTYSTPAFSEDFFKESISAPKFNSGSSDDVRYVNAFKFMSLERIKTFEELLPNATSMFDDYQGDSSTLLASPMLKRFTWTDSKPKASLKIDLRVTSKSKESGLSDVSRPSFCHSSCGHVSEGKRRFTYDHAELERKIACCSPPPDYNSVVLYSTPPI
# [10] = target: Mitogen-activated protein kinase 3 (Homo sapiens) (UniProt P27361); assay: Inhibition of human ERK1 at 1 uM incubated for 30 mins in presence of [gamma-33P]ATP by kinase selectivity assay
# Mitogen-activated protein kinase 3 (Homo sapiens), sequence (P27361 whole entry): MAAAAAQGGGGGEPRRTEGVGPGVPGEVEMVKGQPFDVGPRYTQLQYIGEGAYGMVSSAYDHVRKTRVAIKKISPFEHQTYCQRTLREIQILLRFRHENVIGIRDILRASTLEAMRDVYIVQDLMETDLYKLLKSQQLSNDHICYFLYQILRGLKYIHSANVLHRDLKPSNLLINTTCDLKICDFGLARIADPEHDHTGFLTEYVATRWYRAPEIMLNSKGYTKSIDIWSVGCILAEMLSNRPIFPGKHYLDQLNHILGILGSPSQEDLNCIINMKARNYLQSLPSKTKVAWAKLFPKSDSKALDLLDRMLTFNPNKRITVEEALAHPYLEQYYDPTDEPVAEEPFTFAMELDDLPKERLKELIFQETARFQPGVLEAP
# [11] = target: Serine/threonine-protein kinase pim-1 (Homo sapiens) (UniProt P11309); assay: Inhibition of human PIM1 at 1 uM incubated for 30 mins in presence of [gamma-33P]ATP by kinase selectivity assay
# Serine/threonine-protein kinase pim-1 (Homo sapiens), sequence (P11309 whole entry, looked up): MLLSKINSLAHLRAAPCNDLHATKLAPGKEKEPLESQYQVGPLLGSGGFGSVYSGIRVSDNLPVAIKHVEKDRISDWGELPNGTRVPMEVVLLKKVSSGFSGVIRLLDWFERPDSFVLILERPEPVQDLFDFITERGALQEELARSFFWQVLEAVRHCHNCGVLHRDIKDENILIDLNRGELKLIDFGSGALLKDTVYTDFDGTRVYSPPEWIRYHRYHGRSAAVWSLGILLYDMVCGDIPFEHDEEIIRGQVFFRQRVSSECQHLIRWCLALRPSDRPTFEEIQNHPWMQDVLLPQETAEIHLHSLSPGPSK
# [12] = target: Receptor tyrosine-protein kinase erbB-4 (Homo sapiens) (UniProt Q15303); assay: Inhibition of human HER4 at 1 uM incubated for 30 mins in presence of [gamma-33P]ATP by kinase selectivity assay
# [13] = Aqueous solubility of compound in PBS buffer at pH 7.4 by HPLC-UV analysis; assay type: physicochemical
# Plasmodium falciparum [14] = assay: Antimalarial activity against chloroquine sensitive Plasmodium falciparum 3D7 infected in human RBC assessed as parasite growth inhibition incubated for 72 hrs by SYBR Green dye based fluorescence assay; assay type: functional, organism-based; details: 3D7, Erythrocyte
# [15] = target: Mitogen-activated protein kinase kinase kinase 1 (Homo sapiens) (UniProt Q13233); assay: Inhibition of human MEKK1 at 1 uM incubated for 30 mins in presence of [gamma-33P]ATP by kinase selectivity assay
# Mitogen-activated protein kinase kinase kinase 1 (Homo sapiens), sequence (Q13233 whole entry): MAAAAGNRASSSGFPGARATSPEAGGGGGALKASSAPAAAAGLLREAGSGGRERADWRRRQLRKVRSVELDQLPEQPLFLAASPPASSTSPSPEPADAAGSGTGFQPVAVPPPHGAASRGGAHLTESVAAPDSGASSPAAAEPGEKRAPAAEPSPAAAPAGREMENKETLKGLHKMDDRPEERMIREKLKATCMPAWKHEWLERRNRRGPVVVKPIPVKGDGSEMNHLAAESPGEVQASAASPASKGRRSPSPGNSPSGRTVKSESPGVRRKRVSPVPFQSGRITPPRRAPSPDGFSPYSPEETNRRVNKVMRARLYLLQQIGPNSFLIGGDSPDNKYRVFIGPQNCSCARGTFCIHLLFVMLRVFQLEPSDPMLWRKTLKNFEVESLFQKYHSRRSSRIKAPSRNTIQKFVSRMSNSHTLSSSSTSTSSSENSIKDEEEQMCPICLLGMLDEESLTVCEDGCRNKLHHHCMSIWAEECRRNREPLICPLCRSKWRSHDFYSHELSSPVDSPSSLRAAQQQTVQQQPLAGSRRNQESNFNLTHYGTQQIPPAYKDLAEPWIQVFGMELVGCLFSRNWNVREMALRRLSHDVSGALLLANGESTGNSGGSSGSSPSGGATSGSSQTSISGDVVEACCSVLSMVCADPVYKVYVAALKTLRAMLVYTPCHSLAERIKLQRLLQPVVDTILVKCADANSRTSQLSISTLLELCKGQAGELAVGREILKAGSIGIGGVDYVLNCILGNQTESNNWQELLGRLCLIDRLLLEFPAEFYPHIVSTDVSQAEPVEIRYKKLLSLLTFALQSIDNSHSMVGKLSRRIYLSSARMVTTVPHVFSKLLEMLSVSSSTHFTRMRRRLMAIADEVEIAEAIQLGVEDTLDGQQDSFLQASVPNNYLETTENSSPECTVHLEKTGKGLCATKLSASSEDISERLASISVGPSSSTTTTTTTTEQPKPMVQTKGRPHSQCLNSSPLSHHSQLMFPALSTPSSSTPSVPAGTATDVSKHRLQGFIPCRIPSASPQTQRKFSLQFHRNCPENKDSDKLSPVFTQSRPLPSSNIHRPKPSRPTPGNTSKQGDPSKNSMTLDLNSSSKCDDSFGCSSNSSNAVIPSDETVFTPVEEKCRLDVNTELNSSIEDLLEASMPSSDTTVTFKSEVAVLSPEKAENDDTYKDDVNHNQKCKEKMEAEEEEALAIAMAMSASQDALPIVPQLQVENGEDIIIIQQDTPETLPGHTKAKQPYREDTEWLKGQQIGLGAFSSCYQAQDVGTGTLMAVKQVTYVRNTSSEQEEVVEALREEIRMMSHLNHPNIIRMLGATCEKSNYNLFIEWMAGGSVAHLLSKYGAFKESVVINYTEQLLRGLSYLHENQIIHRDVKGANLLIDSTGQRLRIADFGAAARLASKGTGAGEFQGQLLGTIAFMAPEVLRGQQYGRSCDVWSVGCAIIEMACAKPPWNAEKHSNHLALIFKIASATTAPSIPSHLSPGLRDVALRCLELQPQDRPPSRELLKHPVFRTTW
# HepG2 [16] = assay: Cytotoxicity against human HepG2 cells assessed as cell growth inhibition incubated for 72 hrs by resazurin dye based fluorescence assay; assay type: functional; details: HepG2, 72 h
# [17] = Metabolic stability in CD1 mouse liver microsome assessed as intrinsic clearance at 0.5 uM incubated upto 30 mins by UPLC-MS/MS analysis; assay type: ADME; details: microsomes, 0.5 h
# HepG2 [18] = assay: Cytotoxicity against human HepG2 cells assessed as cell growth inhibition at 10 uM incubated for 48 hrs by CellTiter-Glo assay; assay type: functional; set-up: scale not given: the % may be the effect or the level left
# Plasmodium falciparum [19] = assay: Antimalarial activity against Plasmodium falciparum 3D7 assessed as reduction in parasite growth incubated for 72 hrs; assay type: functional, organism-based; details: 3D7, 72 h
# Mitogen-activated protein kinase 8 (Homo sapiens), sequence (P45983 whole entry): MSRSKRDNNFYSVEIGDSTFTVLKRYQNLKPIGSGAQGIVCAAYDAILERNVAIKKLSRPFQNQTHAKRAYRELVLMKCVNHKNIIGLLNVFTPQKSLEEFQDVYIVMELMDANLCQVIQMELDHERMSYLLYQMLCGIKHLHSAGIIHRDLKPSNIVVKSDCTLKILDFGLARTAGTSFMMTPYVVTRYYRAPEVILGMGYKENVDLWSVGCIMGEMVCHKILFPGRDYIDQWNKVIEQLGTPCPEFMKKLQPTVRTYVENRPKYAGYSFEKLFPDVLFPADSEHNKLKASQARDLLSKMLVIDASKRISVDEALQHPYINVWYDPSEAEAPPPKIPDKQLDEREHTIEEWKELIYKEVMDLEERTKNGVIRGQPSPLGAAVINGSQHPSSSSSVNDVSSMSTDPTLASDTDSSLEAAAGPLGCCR
SMILES,IC50 (Plasmodium falciparum [14]),IC50 (HepG2 [16]),also measured
O=C(Nc1ccccc1)Nc1cccc(Nc2nccc(Nc3ccc4cc[nH]c4c3)n2)c1,0.09 µM,3.2 µM,logD at 6 h [1]: ≥ 4; inhibition [2]: 59.6%; inhibition [3]: 78.8%; inhibition [4]: 57.7%; Papp at 5 h [5]: 10 ×10⁻⁶ cm/s; inhibition [6]: 16.5%; inhibition [7]: 17.1%; CLH [8]: 2.6 mL/min/g; inhibition [9]: 2.4%; inhibition [10]: 75.6%; inhibition [11]: 80.2%; inhibition [12]: 42.3%; solubility [13]: 0.44 µg/mL; inhibition [15]: 40.7%; CLH [17]: 3.8 mL/min/g
O=C(Nc1ccccc1)Nc1cc(Nc2nccc(Nc3ccc4cn[nH]c4c3)n2)ccc1O,1.4 µM,25 µM,–
O=C(Nc1ccc(Nc2nccc(Nc3ccc4cn[nH]c4c3)n2)cc1)Nc1cccc(F)c1,1 µM,6.6 µM,–
CN1CCN(S(=O)(=O)c2ccc(Nc3nccc(Nc4ccc5nc[nH]c5c4)n3)cc2)CC1,1.2 µM,> 25 µM,–
COc1ccc(NC(=O)Nc2ccccc2)cc1Nc1nccc(Nc2ccc3cn[nH]c3c2)n1,1.5 µM,6.5 µM,–
Cc1cccc(NC(=O)Nc2cccc(Nc3nccc(Nc4ccc5cn[nH]c5c4)n3)c2)c1,0.32 µM,2.8 µM,–
Cn1cc2ccc(Nc3ccnc(Nc4cccc(NC(=O)Nc5ccccc5)c4)n3)cc2n1,0.22 µM,12 µM,logD at 6 h [1]: ≥ 4; inhibition [2]: 68.8%; inhibition [3]: 78.7%; inhibition [4]: 51.4%; inhibition [6]: 22%; inhibition [7]: 35.8%; CLH [8]: 9.1 mL/min/g; inhibition [9]: 4.1%; inhibition [10]: 65.6%; inhibition [11]: 102%; inhibition [12]: 67.7%; solubility [13]: 0.11 µg/mL; inhibition [15]: 52.4%; CLH [17]: > 50 mL/min/g
Cc1ccc(NC(=O)Nc2cccc(Nc3nccc(Nc4ccc5cn[nH]c5c4)n3)c2)cc1,0.72 µM,11 µM,–
O=C(Nc1ccccc1)Nc1cccc(Nc2nccc(Nc3ccc4[nH]ccc4c3)n2)c1,0.093 µM,5 µM,logD at 6 h [1]: ≥ 4; inhibition [2]: 68%; inhibition [3]: 71.4%; inhibition [4]: 56.7%; inhibition [6]: 21.7%; inhibition [7]: 26.6%; CLH [8]: 5 mL/min/g; inhibition [9]: 1.8%; inhibition [10]: 84%; inhibition [11]: 99.6%; inhibition [12]: 32.2%; solubility [13]: 0.33 µg/mL; inhibition [15]: 45.9%; CLH [17]: 8.8 mL/min/g
Cc1cnc(Nc2cccc(NC(=O)Nc3ccccc3)c2)nc1Nc1ccc2cn[nH]c2c1,0.15 µM,3.6 µM,–
O=C(Nc1ccc(F)cc1)Nc1cccc(Nc2nccc(Nc3ccc4cn[nH]c4c3)n2)c1,0.4 µM,12 µM,–
O=C(Nc1ccccc1)Nc1cccc(Nc2ncc(Cl)c(Nc3ccc4cn[nH]c4c3)n2)c1,2.5 µM,3.5 µM,–
c1cc(Nc2ccc3cn[nH]c3c2)nc(Nc2ccc(Cn3cncn3)cc2)n1,7.2 µM,18 µM,–
O=C(Nc1ccccc1)Nc1cccc(Nc2nccc(Nc3ccc4nc[nH]c4c3)n2)c1,0.54 µM,11 µM,–
"O[C@@H](c1cc(C(F)(F)F)nc2c(C(F)(F)F)cccc12)[C@H]1CCCCN1 [(S,R)-MEFLOQUINE]",–,11.5 µM,–
O=S(=O)(c1ccc(Nc2nccc(Nc3ccc4nc[nH]c4c3)n2)cc1)N1CCOCC1,7.1 µM,> 25 µM,–
O=C(Nc1ccccc1)Nc1cccc(Nc2nccc(Nc3ccc4cn[nH]c4c3)n2)c1,0.47 µM,8.2 µM,–
CC(=O)c1ccc(NC(=O)Nc2ccc(N(C)c3ccnc(Nc4cccc(CS(C)(=O)=O)c4)n3)cc2)cc1,–,–,Activity (HepG2 [18]): 86%; EC50 (Plasmodium falciparum [19]): 0.12 µM
O=C(Nc1ccccc1)Nc1cccc(Nc2ncc([N+](=O)[O-])c(Nc3ccc4cn[nH]c4c3)n2)c1,6.4 µM,> 25 µM,–
Cc1ccc(Nc2nccc(Nc3ccc4cn[nH]c4c3)n2)cc1NC(=O)Nc1ccccc1,1 µM,8.9 µM,–
c1cc(Nc2ccc3nc[nH]c3c2)nc(Nc2ccc(OCCN3CCOCC3)cc2)n1,1.2 µM,> 25 µM,–
c1cc(Nc2ccc3cn[nH]c3c2)nc(Nc2ccc(OCCN3CCOCC3)cc2)n1,2.1 µM,15 µM,–
O=C(Nc1ccc(F)cc1)Nc1ccc(Nc2nccc(Nc3ccc4cn[nH]c4c3)n2)cc1,0.79 µM,3.5 µM,–
CN1CCN(c2ccc(Nc3ncc(C#N)c(Nc4ccccc4C(N)=O)n3)cc2)CC1,–,–,Activity (HepG2 [18]): 43%; EC50 (Plasmodium falciparum [19]): 0.04 µM
O=C(Nc1ccccc1)Nc1cccc(Nc2nccc(Nc3ccc4[nH]ncc4c3)n2)c1,0.33 µM,8.1 µM,–
O=C(Nc1ccccc1)Nc1ccc(Nc2nccc(Nc3ccc4cn[nH]c4c3)n2)cc1,0.92 µM,11 µM,–
O=C1NC(Cc2ccc(Nc3nccc(Nc4ccc5cn[nH]c5c4)n3)cc2)CO1 (stereo not given),7.1 µM,20 µM,–
Nc1cnc(Nc2cccc(NC(=O)Nc3ccccc3)c2)nc1Nc1ccc2cn[nH]c2c1,2.9 µM,> 25 µM,–
Cc1c2ccc(Nc3ccnc(Nc4cccc(NC(=O)Nc5ccccc5)c4)n3)cc2nn1C,0.17 µM,2.4 µM,–

# — ChEMBL document CHEMBL5104230, “Preparation, biological evaluation and QSAR analysis of urea substituted 2,4-diamino-pyrimidine anti-malarials” (RSC Med Chem, 2022)
